ChEMBL document CHEMBL4138139, “Discovery of VU6005649, a CNS Penetrant mGlu7/8 Receptor PAM Derived from a Series of Pyrazolo[1,5-a]pyrimidines” (ACS Med Chem Lett, 2017)

What was measured:
[1] = Unbound brain to plasma concentration ratio in Sprague-Dawley rat at 0.2 to […], iv administered as cassette dose measured at […] post dose by LC-MS/MS analysis; assay type: ADME, organism-based; settings: brain and plasma, read-out: K(p,uu,brain)
[2] = Brain to plasma partition coefficient, Kp of the compound in Sprague-Dawley rat at 0.2 to […], iv administered as cassette dose measured at […] post dose by LC-MS/MS analysis; assay type: ADME, organism-based; settings: brain and plasma
Cytochrome P450 2C9 = Cytochrome P450 2C9 (Homo sapiens, UniProt P11712); test: Inhibition of CYP2C9 in human liver microsomes using diclofenac as substrate preincubated for 15 mins followed by NADPH addition measured after 8 mins by LC-MS/MS analysis; assay type: ADME
Sequence of Cytochrome P450 2C9 (P11712 whole entry): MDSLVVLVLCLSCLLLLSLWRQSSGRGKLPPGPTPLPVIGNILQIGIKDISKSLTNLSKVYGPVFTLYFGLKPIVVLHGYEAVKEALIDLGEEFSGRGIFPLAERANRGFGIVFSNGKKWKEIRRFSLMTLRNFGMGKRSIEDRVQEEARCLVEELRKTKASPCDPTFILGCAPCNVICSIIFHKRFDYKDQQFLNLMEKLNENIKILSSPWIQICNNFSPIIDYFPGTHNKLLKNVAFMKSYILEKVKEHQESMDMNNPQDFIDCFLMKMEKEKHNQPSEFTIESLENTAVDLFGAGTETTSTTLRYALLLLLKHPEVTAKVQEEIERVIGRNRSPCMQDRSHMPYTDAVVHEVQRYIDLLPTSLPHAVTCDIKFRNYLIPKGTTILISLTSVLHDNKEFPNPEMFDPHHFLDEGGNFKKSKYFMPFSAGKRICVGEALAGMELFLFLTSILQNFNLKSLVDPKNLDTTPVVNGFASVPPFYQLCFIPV

Cytochrome P450 1A2 = target: T1, Cytochrome P450 1A2 (Homo sapiens, UniProt P05177); test: Inhibition of CYP1A2 in human liver microsomes using phenacetin as substrate preincubated for 15 mins followed by NADPH addition measured after 8 mins by LC-MS/MS analysis; assay type: ADME
T1 sequence (P05177 whole entry): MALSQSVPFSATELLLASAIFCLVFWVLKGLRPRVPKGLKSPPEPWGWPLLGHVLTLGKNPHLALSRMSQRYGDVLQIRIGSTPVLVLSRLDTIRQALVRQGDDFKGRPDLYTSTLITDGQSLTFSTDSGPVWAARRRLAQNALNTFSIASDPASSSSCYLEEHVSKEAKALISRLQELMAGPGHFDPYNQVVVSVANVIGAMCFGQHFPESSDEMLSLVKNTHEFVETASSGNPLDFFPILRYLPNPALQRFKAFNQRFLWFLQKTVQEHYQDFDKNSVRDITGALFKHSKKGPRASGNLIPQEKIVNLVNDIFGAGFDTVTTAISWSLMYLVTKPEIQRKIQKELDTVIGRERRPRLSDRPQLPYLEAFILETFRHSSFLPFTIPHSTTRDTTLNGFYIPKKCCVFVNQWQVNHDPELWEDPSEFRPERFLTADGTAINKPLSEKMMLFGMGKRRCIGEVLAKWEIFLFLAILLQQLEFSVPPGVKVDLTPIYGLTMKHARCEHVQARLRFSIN

Cytochrome P450 3A4 = Cytochrome P450 3A4 (Homo sapiens, UniProt P08684); test: Inhibition of CYP3A4 in human liver microsomes using midazolam as substrate preincubated for 15 mins followed by NADPH addition measured after 8 mins by LC-MS/MS analysis; assay type: ADME
Sequence of Cytochrome P450 3A4 (P08684 whole entry): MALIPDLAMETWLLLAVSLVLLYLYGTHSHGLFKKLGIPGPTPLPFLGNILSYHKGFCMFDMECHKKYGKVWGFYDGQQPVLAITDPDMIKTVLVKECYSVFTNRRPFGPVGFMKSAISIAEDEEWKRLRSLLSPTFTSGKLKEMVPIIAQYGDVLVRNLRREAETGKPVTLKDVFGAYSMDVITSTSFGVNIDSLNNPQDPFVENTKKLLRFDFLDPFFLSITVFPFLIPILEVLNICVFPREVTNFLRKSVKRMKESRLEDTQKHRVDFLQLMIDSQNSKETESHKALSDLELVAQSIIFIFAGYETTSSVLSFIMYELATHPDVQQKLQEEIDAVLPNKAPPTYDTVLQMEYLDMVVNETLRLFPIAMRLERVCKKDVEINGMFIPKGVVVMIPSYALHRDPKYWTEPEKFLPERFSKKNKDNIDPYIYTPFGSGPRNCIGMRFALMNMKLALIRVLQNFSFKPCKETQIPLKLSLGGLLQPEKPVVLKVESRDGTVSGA

Cytochrome P450 2D6 = Cytochrome P450 2D6 (Homo sapiens, UniProt P10635); test: Inhibition of CYP2D6 in human liver microsomes using dextromethorphan as substrate preincubated for 15 mins followed by NADPH addition measured after 8 mins by LC-MS/MS analysis; assay type: ADME
Sequence of Cytochrome P450 2D6 (P10635 whole entry): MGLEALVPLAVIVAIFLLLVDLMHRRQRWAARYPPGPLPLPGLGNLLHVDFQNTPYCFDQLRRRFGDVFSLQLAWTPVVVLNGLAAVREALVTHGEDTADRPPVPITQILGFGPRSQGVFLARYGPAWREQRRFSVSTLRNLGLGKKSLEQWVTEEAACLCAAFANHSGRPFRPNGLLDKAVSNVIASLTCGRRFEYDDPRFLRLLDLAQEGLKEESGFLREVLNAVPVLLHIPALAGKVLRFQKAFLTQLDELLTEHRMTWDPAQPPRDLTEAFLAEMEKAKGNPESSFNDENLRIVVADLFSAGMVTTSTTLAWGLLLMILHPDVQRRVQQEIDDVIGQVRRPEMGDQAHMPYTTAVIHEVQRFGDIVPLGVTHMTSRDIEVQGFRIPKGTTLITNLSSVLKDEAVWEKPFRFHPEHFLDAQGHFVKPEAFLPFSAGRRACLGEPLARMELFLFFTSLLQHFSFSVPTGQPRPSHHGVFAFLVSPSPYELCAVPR

[3] = target: T2, Metabotropic glutamate receptor 7 (Rattus norvegicus, UniProt P35400); test: Positive allosteric modulation of rat mGlu7 receptor expressed in HEK cells co-expressing Galphai5 assessed as increase in glutamate-induced calcium flux incubated for 142 secs followed by glutamate addition measured after 120 secs by Fluo4-AM dye based fluorescence assay; assay type: functional, cell-based
T2 sequence (P35400 whole entry): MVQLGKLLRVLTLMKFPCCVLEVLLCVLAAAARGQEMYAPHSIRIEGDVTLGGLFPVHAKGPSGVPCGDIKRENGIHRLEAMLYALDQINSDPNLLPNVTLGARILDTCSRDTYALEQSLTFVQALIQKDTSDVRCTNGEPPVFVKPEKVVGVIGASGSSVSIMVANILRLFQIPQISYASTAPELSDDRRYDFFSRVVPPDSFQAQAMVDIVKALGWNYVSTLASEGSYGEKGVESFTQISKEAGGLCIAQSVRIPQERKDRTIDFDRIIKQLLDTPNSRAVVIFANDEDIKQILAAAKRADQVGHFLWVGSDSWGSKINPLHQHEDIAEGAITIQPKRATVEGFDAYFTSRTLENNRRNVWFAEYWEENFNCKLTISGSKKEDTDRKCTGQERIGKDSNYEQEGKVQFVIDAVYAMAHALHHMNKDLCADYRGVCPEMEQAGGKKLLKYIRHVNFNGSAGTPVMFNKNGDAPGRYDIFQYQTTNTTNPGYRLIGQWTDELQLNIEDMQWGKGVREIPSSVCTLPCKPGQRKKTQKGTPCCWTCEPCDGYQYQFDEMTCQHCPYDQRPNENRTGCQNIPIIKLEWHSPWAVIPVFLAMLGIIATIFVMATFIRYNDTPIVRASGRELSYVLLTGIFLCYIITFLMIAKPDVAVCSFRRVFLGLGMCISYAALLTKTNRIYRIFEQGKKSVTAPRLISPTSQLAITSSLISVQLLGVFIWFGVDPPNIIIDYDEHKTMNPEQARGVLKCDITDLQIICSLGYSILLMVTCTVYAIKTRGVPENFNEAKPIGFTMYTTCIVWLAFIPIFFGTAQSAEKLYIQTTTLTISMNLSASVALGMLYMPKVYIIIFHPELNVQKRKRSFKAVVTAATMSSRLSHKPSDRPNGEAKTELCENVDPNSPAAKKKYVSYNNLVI

[4] = target: T3, Metabotropic glutamate receptor 4 (Homo sapiens, UniProt Q14833); test: Positive allosteric modulation of human mGlu4 receptor expressed in CHO cells co-expressing Gqi5 assessed as increase in glutamate-induced calcium mobilization incubated for 142 secs followed by glutamate addition measured after 120 secs by Fluo4-AM dye based fluorescence assay; assay type: functional, cell-based
T3 sequence (Q14833 whole entry): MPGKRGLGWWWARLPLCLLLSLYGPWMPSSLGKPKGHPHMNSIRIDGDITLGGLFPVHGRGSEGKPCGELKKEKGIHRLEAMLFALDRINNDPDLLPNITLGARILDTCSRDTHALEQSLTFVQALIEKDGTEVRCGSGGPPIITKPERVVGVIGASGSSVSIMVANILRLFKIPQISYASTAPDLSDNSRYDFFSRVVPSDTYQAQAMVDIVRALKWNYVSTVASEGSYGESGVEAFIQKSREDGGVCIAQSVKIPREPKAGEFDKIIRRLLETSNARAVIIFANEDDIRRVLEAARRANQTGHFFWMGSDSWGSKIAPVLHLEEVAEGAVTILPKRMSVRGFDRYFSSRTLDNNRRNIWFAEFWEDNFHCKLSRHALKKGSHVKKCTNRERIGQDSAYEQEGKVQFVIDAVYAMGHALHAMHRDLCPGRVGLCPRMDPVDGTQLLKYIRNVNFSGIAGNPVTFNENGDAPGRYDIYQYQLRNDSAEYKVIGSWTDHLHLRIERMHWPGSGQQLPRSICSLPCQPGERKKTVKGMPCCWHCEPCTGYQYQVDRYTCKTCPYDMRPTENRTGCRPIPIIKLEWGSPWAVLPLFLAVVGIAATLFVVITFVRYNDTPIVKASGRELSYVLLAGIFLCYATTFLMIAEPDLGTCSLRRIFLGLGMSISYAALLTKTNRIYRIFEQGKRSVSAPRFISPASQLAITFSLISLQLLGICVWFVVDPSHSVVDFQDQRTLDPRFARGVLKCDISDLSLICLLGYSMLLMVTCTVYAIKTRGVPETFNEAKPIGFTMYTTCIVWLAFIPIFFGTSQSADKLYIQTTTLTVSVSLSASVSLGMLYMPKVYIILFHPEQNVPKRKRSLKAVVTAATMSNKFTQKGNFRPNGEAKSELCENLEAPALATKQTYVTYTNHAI

[5] = target: T4, Metabotropic glutamate receptor 8 (Rattus norvegicus, UniProt P70579); test: Positive allosteric modulation of rat mGlu8 receptor expressed in HEK cells co-expressing Galphai5 assessed as increase in glutamate-induced calcium flux incubated for 142 secs followed by glutamate addition measured after 120 secs by Fluo4-AM dye based fluorescence assay; assay type: functional, cell-based
T4 sequence (P70579 whole entry): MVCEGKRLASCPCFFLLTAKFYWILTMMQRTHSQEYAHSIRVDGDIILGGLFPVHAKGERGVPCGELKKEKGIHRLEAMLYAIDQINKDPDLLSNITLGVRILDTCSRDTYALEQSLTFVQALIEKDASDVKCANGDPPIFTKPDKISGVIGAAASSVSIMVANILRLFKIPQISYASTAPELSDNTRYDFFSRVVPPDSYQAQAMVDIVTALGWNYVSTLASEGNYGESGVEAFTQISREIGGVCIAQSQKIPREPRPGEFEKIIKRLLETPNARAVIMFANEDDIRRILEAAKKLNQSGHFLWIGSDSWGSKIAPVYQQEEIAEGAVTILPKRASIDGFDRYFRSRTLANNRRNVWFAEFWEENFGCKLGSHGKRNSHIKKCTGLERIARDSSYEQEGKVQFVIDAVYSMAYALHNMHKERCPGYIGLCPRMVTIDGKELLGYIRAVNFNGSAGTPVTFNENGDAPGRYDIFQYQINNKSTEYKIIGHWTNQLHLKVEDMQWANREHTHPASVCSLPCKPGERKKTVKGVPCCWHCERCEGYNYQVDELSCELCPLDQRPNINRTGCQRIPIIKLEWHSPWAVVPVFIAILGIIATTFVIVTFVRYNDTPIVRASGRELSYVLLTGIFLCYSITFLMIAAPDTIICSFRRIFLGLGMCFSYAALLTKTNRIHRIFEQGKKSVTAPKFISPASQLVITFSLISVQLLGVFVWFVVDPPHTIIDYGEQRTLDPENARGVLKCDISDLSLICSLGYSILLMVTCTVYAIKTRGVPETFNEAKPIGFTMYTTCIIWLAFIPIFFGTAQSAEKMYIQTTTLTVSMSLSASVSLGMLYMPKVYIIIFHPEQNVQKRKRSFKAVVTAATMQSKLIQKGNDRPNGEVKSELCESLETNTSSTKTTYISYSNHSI

[6] = target: T4, Metabotropic glutamate receptor 8; test: Negative allosteric modulation of rat mGlu8 receptor expressed in HEK cells co-expressing Galphai5 assessed as decrease in glutamate-induced thallium flux incubated for 142 secs followed by glutamate addition measured after 120 secs by Fluo4-AM dye based fluorescence assay; assay type: functional, cell-based
[7] = target: T2, Metabotropic glutamate receptor 7; test: Negative allosteric modulation of rat mGlu7 receptor expressed in HEK cells co-expressing Galphai5 assessed as decrease in glutamate-induced thallium flux incubated for 142 secs followed by glutamate addition measured after 120 secs by Fluo4-AM dye based fluorescence assay; assay type: functional, cell-based
[8] = target: T3, Metabotropic glutamate receptor 4; test: Negative allosteric modulation of human mGlu4 receptor expressed in CHO cells co-expressing Gqi5 harboring GIRK channel assessed as decrease in glutamate-induced thallium flux incubated for 142 secs followed by glutamate addition measured after 120 secs by Fluo4-AM dye based fluorescence assay; assay type: functional, cell-based

Kp uu at […] [1] | Kp at […] [2] | IC50 (Cytochrome P450 2C9) [µM] | IC50 (Cytochrome P450 1A2) [µM] | IC50 (Cytochrome P450 3A4) [µM] | IC50 (Cytochrome P450 2D6) [µM] | SMILES | other results
0.8 | 1.5 | – | – | – | – | Cc1cc(C(F)(F)F)n2nc(C)c(-c3ccc(OC(F)F)cc3)c2n1 | –
– | 4.3 | 27 | 0.33 | > 30 | > 30 | COc1ccc(-c2c(C)nn3c(C(F)(F)F)cc(C)nc23)cc1F | –
– | – | – | – | – | – | COC(=O)c1ccc(-n2c(C)cc(C(=O)CSc3ccc(NC(C)=O)cc3)c2C)cc1 | EC50 [3]: 1.5 µM; EC50 [4]: 3.2 µM; EC50 [5]: 0.9 µM
0.9 | 1.4 | – | – | – | – | COc1ccc(-c2c(C)nn3c(C(F)(F)F)cc(C)nc23)c(F)c1 | –
– | 2.2 | > 30 | 8.67 | > 30 | > 30 | COc1cc(F)c(-c2c(C)nn3c(C(F)(F)F)cc(C)nc23)c(F)c1 | –
– | 1.4 | > 30 | 0.69 | > 30 | > 30 | COc1ccc(-c2c(C)nn3c(C(F)(F)F)cc(C)nc23)cc1 | –
1.7 | 4.8 | – | – | – | – | COc1ccc(-c2c(C)nn3c(C(F)(F)F)cc(C)nc23)cc1Cl | –
– | 2.7 | > 30 | 2.93 | > 30 | > 30 | COc1cc(F)c(-c2c(C)nn3c(C(F)(F)F)cc(C)nc23)cc1F | –
– | – | – | – | – | – | CCc1nc2c(o1)CC(c1ccc(C)cc1C)CC2=O (configuration not stated) | IC50 [6]: > 10 µM; IC50 [7]: 0.65 µM; IC50 [8]: > 10 µM
